Experiments:
K18-hACE2 mice = conditions: mouse, in vivo
Syrian hamsters = conditions: hamster, in vivo

Substance: BetaCoV/Wuhan/IVDC-HB-01/2019 [SARS-CoV-2 WT]
- body weight loss (K18-hACE2 mice): associated with weight loss
- clinical signs (K18-hACE2 mice): only WT exhibit clinical signs
- animals that succumbed to the disease or reached termination criteria (Syrian hamsters): 75%
- mean bodyweight (Syrian hamsters): 84%

From patent US20260124293A1 (priority 2022, published 2026)
